The test system of experiment [1] is phosphorylation of eIF4E at ser209 in MV4.11 cell line. The experiment is described as follows: MNK cellular activity phospho-eIF4E detection assay (Alphascreen Surefire). The class given is cell-based. The following applies: Homo sapiens; MV4.11 cell line, phospho-eIF4E (ser209) Alphascreen Surefire; read-out: P(IC50) elF4E (converted). The essentials: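 AlphaScreen SureFire sandwich-immunoassay readout of phospho-eIF4E Ser209 in lysed MV4.11 cells; acceptor then donor beads, each 1.5 hr at room temperature. Signal normalised to untreated DMSO-only controls; duplicate curves, values averaged over at least 2 independent experiments.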
(In general: In Alpha technology, singlet oxygen from a donor bead excites a nearby acceptor bead.)

A further experiment addresses T1, Full-length human MNK2 (Homo sapiens, UniProt Q9HBH9, T379D).
T1 construct: GST (N); purchased Carna Biosciences 02-146; host or cells: baculovirus expression system
The experiment can be described thus: MNK2 biochemical IC50 assay (Caliper Mobility Shift Assay). The following applies: read-out: P(IC50) MNK2 (converted).

Another experiment concerns the target T2, Full-length human MNK1 (Homo sapiens, UniProt Q9BUB5, T385D).
T2 construct: GST (N); purchased Carna Biosciences 02-145; host or cells: baculovirus expression system
The experiment can be described thus: MNK1 biochemical IC50 assay (Caliper Mobility Shift Assay). The following applies: read-out: P(IC50) MNK1 (converted).

The structures appear in SMILES notation.

T2 sequence (Q9BUB5 1-424 isoform Q9BUB5-2 T344D): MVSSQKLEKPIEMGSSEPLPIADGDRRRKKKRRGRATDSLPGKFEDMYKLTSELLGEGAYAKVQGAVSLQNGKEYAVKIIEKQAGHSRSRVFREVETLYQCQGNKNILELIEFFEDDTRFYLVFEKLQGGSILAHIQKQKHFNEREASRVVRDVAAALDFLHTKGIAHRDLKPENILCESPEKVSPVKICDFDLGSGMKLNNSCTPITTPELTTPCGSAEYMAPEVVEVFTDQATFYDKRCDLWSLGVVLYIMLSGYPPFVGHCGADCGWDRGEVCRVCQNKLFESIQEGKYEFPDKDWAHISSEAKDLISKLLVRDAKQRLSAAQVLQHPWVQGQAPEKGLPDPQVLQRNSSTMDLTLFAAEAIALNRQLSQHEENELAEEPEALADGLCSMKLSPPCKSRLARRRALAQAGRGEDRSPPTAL
T1 sequence (Q9HBH9 whole entry T379D): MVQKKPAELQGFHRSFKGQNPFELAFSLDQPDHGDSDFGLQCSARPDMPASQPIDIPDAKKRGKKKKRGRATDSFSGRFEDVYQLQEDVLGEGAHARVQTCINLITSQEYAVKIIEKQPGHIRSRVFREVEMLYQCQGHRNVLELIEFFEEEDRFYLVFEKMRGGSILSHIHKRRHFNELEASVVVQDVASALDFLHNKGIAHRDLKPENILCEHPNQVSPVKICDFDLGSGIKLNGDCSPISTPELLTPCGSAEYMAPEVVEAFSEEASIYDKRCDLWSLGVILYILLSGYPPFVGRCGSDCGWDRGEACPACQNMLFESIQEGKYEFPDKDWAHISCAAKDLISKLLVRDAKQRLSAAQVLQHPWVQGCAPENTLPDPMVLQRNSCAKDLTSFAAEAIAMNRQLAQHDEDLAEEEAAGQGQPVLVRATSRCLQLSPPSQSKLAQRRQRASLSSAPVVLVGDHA

By IC50 is commonly meant the midpoint of a concentration-inhibition curve. For the compound `CNC(=O)c1nc2c(N3CC(CCO)c4ccccc43)ncnc2s1` (stereo not drawn) [Example 157], the IC50 in experiment [1] is 0.01 µM; at Full-length human MNK2 it was 0.02 µM; at Full-length human MNK1, 0.0316 µM.
On to `O=C(NCC1CCNCC1)c1nc2c(N3CCc4cc(Br)ccc43)ncnc2s1` [Example 169, 7-(5-Bromoindolin-1-yl)-N-(4-piperidylmethyl)thiazolo[5,4-d]pyrimidine-2-carboxamide], for which the IC50 in experiment [1] was 0.0316 µM; at Full-length human MNK2 it was 0.00794 µM; at Full-length human MNK1, 0.00794 µM.
In the case of `CC(C)[C@@H](CO)NC(=O)c1nc2c(N3CCc4ccccc43)ncnc2s1` [Example 101, N-[(1S)-1-(hydroxymethyl)-2-methyl-propyl]-7-indolin-1-yl-thiazolo[5,4-d]pyrimidine-2-carboxamide], the figures for the IC50 (in experiment [1]; at Full-length human MNK2; at Full-length human MNK1) were 0.0316 µM, 0.0126 µM and 0.01 µM, respectively.
Regarding `CC(C)Oc1cc(F)ccc1Nc1ncnc2sc(C(=O)N3CCC(CCO)CC3)nc12` [Example 11, [7-(4-fluoro-2-isopropoxy-anilino)thiazolo[5,4-d]pyrimidin-2-yl]-[4-(2 hydroxyethyl)-1-piperidyl]methanone], the figures for the IC50 (in experiment [1]; on Full-length human MNK2; on Full-length human MNK1) were 0.316 µM, 0.316 µM and 0.398 µM, respectively.
Take `CN1CCN(CCC2CN(c3ncnc4sc(C(=O)NC5CCOCC5)nc34)c3ccccc32)CC1` (stereo not drawn) [Example 155, 7-[3-[2-(4-methylpiperazin-1-yl)ethyl]indolin-1-yl]-N-tetrahydropyran-4-yl-thiazolo[5,4-d]pyrimidine-2-carboxamide]: the IC50 is 0.0501 µM in experiment [1], 0.0794 µM at Full-length human MNK2 and 0.126 µM at Full-length human MNK1.
For the compound `CN(C)CCC1CN(c2ncnc3sc(C(=O)NC4CCOCC4)nc23)c2ccccc21` (stereo not drawn) [Example 152, 7-[3-[2-(dimethylamino)ethyl]-indolin-1-yl]-N-tetrahydropyran-4-yl-thiazolo[5,4-d]pyrimidine-2-carboxamide], the IC50 in experiment [1] was 0.0501 µM; at Full-length human MNK2, 0.0794 µM; at Full-length human MNK1 it was 0.1 µM.
In the case of `CC1(CO)CN(c2ncnc3sc(C(=O)NCC4CCNCC4)nc23)c2ccc(F)cc21` (stereo not drawn) [Example 141], the results for the IC50 (in experiment [1]; at Full-length human MNK2; on Full-length human MNK1) were 0.02 µM, 0.00501 µM and 0.00316 µM, respectively.
Turning to `CN1CCN(CCC2CN(c3ncnc4sc(C(=O)NC5CCOCC5)nc34)c3ccc(F)cc32)CC1` (stereo not drawn) [Example 150, 7-[5-fluoro-3-[2-(4-methylpiperazin-1-yl)ethyl]indolin-1-yl]-N-tetrahydropyran-4-yl-thiazolo[5,4-d]pyrimidine-2-carboxamide], the figures for the IC50 (in experiment [1]; on Full-length human MNK2; on Full-length human MNK1) were 0.0251 µM, 0.0631 µM and 0.0631 µM, respectively.
As to `O=C(NC1CCNCC1)c1nc2c(N3CCc4cc(F)ccc43)ncnc2s1` [Example 78, 7-(5-fluoroindolin-1-yl)-N-(4-piperidyl)thiazolo[5,4-d]pyrimidine-2-carboxamide], the IC50 in experiment [1] was 0.00316 µM; on Full-length human MNK2, 0.002 µM; on Full-length human MNK1, 0.002 µM.
As to `CN(C)CCCOc1nc2c(N3CCc4cc(F)ccc43)ncnc2s1` [Example 89, 3-((7-(5-Fluoroindolin-1-yl)thiazolo[5,4-d]pyrimidin-2-yl)oxy)-N,N-dimethylpropan-1-amine], the values for the IC50 (in experiment [1]; on Full-length human MNK2; on Full-length human MNK1) were 0.2 µM, 0.0631 µM and 0.0398 µM, respectively.
Take `O=C(NCC1CCNCC1)c1nc2c(Nc3ccc4[nH]ncc4c3)ncnc2s1` [Example 50, 7-(1H-indazol-5-ylamino)-N-(4-piperidylmethyl)thiazolo[5,4-d]pyrimidine-2-carboxamide]: the IC50 in experiment [1] was 0.794 µM; at Full-length human MNK2, 0.0316 µM; at Full-length human MNK1 it was 0.02 µM.
Turning to `O=C(NC1CCOCC1)c1nc2c(N3CC(CCN4CCOCC4)c4cc(F)ccc43)ncnc2s1` (stereo not drawn) [Example 151, 7-[5-fluoro-3-(2-morpholinoethyl)indolin-1-yl]-N-tetrahydropyran-4-yl-thiazolo[5,4-d]pyrimidine-2-carboxamide], the IC50 was 0.0316 µM in experiment [1], 0.1 µM at Full-length human MNK2 and 0.1 µM on Full-length human MNK1.
Take `NCCC1CN(c2ncnc3sc(C(=O)NC4CC4)nc23)c2ccccc21` (stereo not drawn) [Example 164, 7-(3-(2-Aminoethyl)indolin-1-yl)-N-cyclo-propylthiazolo[5,4-d]pyrimidine-2-carboxamide]: the IC50 (in experiment [1]; on Full-length human MNK2; on Full-length human MNK1) was 0.00501 µM each time.
Turning to `Fc1ccc2c(c1)CCN2c1ncnc2scnc12` [Example 171, 7-(5-Fluoroindolin-1-yl)thiazolo[5,4-d]pyrimidine], the figures for the IC50 (in experiment [1]; on Full-length human MNK2; on Full-length human MNK1) were 0.251 µM, 0.0631 µM and 0.0794 µM, respectively.
With `O=C(NC1CCOCC1)c1nc2c(N3CCc4cccc(F)c43)ncnc2s1` [Example 90, 7-(7-Fluoroindolin-1-yl)-N-tetrahydropyran-4-yl-thiazolo[5,4-d]pyrimidine-2-carboxamide], the IC50 in experiment [1] was 0.158 µM; on Full-length human MNK2, 0.126 µM; at Full-length human MNK1, 0.126 µM.
Turning to `O=C(NC1CCOCC1)c1nc2c(N3CCc4cnccc43)ncnc2s1` [Example 43, 7-(2,3-Dihydro-1H-pyrrolo[3,2-c]pyridin-1-yl)-N-(tetrahydro-2H-pyran-4-yl)[1,3]thiazolo[5,4-d]pyrimidine-2-carboxamide], the IC50 in experiment [1] was 0.0251 µM; on Full-length human MNK2, 0.0316 µM; at Full-length human MNK1, 0.0398 µM.
`CN(C)CCCNC(=O)c1nc2c(Nc3ccc(F)cc3O[C@H]3CCCOC3)ncnc2s1` [Example 17, N-[3-(dimethylamino)propyl]-7-[4-fluoro-2-[(3S)-tetrahydropyran-3-yl]oxy-anilino]thiazolo[5,4-d]pyrimidine-2-carboxamide]: the IC50 in experiment [1] was 0.1 µM; at Full-length human MNK2, 0.1 µM; at Full-length human MNK1, 0.126 µM.
As for `CC1(CO)CN(c2ncnc3sc(C(=O)NCC4CCNCC4)nc23)c2ccccc21` (stereo not drawn) [Example 140], the IC50 in experiment [1] is 0.0398 µM; at Full-length human MNK2, 0.00631 µM; at Full-length human MNK1 it was 0.00631 µM.
For `COCCCNC(=O)c1nc2c(N3CC(CCN)c4ccccc43)ncnc2s1` (stereo not drawn) [Example 166, 7-[3-(2-amino-ethyl)indolin-1-yl]-N-(3-methoxypropyl) thiazolo[5,4-d]pyrimidine-2-carboxamide], the results for the IC50 (in experiment [1]; on Full-length human MNK2; on Full-length human MNK1) were 0.00398 µM, 0.00501 µM and 0.00501 µM, respectively.
As to `C[C@H]1Cc2ccccc2N1c1ncnc2sc(C(=O)NC3CCOCC3)nc12` [Example 133, 7-[(2S)-2-methylindolin-1-yl]-N-tetrahydropyran-4-yl-thiazolo[5,4-d]pyrimidine-2-carboxamide], the figures for the IC50 (in experiment [1]; at Full-length human MNK2; on Full-length human MNK1) were 0.0501 µM, 0.0398 µM and 0.0794 µM, respectively.
As to `Fc1ccc2c(c1)CCN2c1ncnc2sc(N3CCOCC3)nc12` [Example 87, 4-[7-(5-fluoroindolin-1-yl)thiazolo[5,4-d]pyrimidin-2-yl]morpholine], the results for the IC50 (in experiment [1]; at Full-length human MNK2; on Full-length human MNK1) were 0.2 µM, 0.0794 µM and 0.126 µM, respectively.
In the case of `CNCCCNC(=O)c1nc2c(Nc3ccc(F)cc3OC(C)C)ncnc2s1` [Example 29, 7-{[4-Fluoro-2-(propan-2-yloxy)phenyl]amino}-N-[3-(methylamino)propyl][1,3]thiazolo[5,4-d]pyrimidine-2-carboxamide], the IC50 in experiment [1] is 0.0398 µM; on Full-length human MNK2 it was 0.0501 µM; on Full-length human MNK1, 0.0631 µM.
Taken in the same sequence, the figures for `CC(C)Oc1cc(F)ccc1Nc1ncnc2sc(C(=O)N3CCC(CN(C)C)CC3)nc12` [Example 35, {4-[(dimethylamino)methyl]piperidin-1-yl}(7-{[4-fluoro-2-(propan-2-yloxy)phenyl]amino}[1,3]thiazolo[5,4-d]pyrimidin-2-yl)methanone] were 0.316 µM, 0.2 µM and 0.158 µM.
Regarding `CC(C)Oc1ncccc1Nc1ncnc2sc(C(=O)NCC3CCNCC3)nc12` [Example 55, 7-[(2-Isopropoxy-3-pyridyl)amino]-N-(4-piperidylmethyl)thiazolo[5,4-d]pyrimidine-2-carboxamide], the results for the IC50 (in experiment [1]; at Full-length human MNK2; at Full-length human MNK1) were 0.316 µM, 0.251 µM and 0.316 µM, respectively.
For `CO[C@@H]1CCCC[C@H]1Oc1cc(F)ccc1Nc1ncnc2sc(C(=O)NCCCN(C)C)nc12` [Example 20, N-[3-(dimethylamino)propyl]-7-[4-fluoro-2-[(1R,2R)-2-methoxycyclohexoxy]anilino]thiazolo[5,4-d]pyrimidine-2-carboxamide], the IC50 is 0.316 µM in experiment [1], 0.398 µM on Full-length human MNK2 and 0.794 µM at Full-length human MNK1.
On to `CC(C)Oc1cc(F)ccc1Nc1ncnc2sc(C(=O)NCC3CCOCC3)nc12` [Example 38, 7-{[4-fluoro-2-(propan-2-yloxy)phenyl]amino}-N-(tetrahydro-2H-pyran-4-ylmethyl)[1,3]thiazolo[5,4-d]pyrimidine-2-carboxamide], for which the IC50 was 0.0794 µM in experiment [1], 0.0631 µM at Full-length human MNK2 and 0.1 µM on Full-length human MNK1.
For `CNCCNC(=O)c1nc2c(N3CCc4cc(F)ccc43)ncnc2s1` [Example 71, 7-(5-fluoroindolin-1-yl)-N-[2-(methylamino)ethyl]thiazolo[5,4-d]pyrimidine-2-carboxamide], the IC50 is 0.0158 µM in experiment [1], 0.00631 µM on Full-length human MNK2 and 0.01 µM on Full-length human MNK1.
Taken in the same sequence, the figures for `O=C(NC1CC1)c1nc2c(N3CCc4ccccc43)ncnc2s1` [Example 99, N-cyclopropyl-7-indolin-1-yl-thiazolo[5,4-d]pyrimidine-2-carboxamide] were 0.0158 µM, 0.00501 µM and 0.0126 µM.

Values taken from patent US10669284B2, “Fused thiazolopyrimidine derivatives as MNKS inhibitors” (LIFEARC, priority 2015, dated 2020).
